These results are taken from patent US20030129189A1, “Tumor necrosis factor-gamma” (priority 1994, published 2003).

Assay [1] concerns HL-60. The assay can be described thus: TNF-gamma activity on HL-60 cells (incl. cell adhesion). Type of assay: cell-based, human. Also noted: key to Proliferation / Differentiation / Adhesion: The numbers of “+” indicate the relative level of activities.; ++: The numbers of “+” indicate the relative level of activities.; +++: The numbers of “+” indicate the relative level of activities.; “−” indicates no detected activity at the concentration range tested. The protocol:
(§1) The adherent target cells were prepared from confluent cultures by trypsinization in PBS, and non-adherent target cells were harvested from stationary cultures and washed once with medium. Target cells were suspended at 3×10^5 cells/ml in medium containing 10% FCS. 0.1 ml aliquots were dispensed into 96-well flat-bottomed microtiter plates containing 0.1 ml serially diluted test samples of cells (WEHI 164 and L929). Incubation was continued for 70 hours. TNF-alpha, TNF-beta and bacterially-produced TNF-gamma were added at a 0.5 μg/ml concentration. The cytotoxicity and proliferation activity was quantified using an MTS assay performed by the addition of 20 μl of MTS and phenazine methosulfate (PMS) solution to each well. After a three hour incubation, the OD at 492 nm was measured by an ELISA plate reader. The OD492 is proportional to the number of viable cells in the wells. The percent of cytotoxicity was calculated as follows: […]. The photographs were taken after 72 hours.
To test adhesion ability of TNF-gamma, HL-60 cells were used and cell adhesion and cell-cell contact were measured by observation under the microscope and scored subjectively by two independent investigators. FIG. 11 illustrates the ability of TNF-gamma to induce cell adhesion. Cultures which were not treated with TNF-gamma contained cells which had spread throughout the culture dish.

Assay [2] concerns Raji. Description: TNF-gamma activity on Raji cells. Type of assay: cell-based. Also noted: key: The numbers of “+” indicate the relative level of activities.; ++: The numbers of “+” indicate the relative level of activities.; +++: The numbers of “+” indicate the relative level of activities.; “−” indicates no detected activity at the concentration range tested. The note with it: human Burkitt's lymphoma. The procedure: as §1

Assay [3] concerns Primary HUVEC. The assay can be described thus: TNF-gamma activity on primary HUVEC. Also noted: key: The numbers of “+” indicate the relative level of activities.; ++: The numbers of “+” indicate the relative level of activities.; +++: The numbers of “+” indicate the relative level of activities.; “−” indicates no detected activity at the concentration range tested. Type of assay: cell-based, human.

Assay [4] has as its system A-431. The assay can be described thus: TNF-gamma activity on A-431 cells. The format is cell-based. Also noted: key: The numbers of “+” indicate the relative level of activities.; ++: The numbers of “+” indicate the relative level of activities.; +++: The numbers of “+” indicate the relative level of activities.; “−” indicates no detected activity at the concentration range tested. The note with it: A-431, human epidermoid carcinoma.

For assay [5], the system named is 293. Description: TNF-gamma activity on 293 cells. The format is cell-based. Also noted: key: The numbers of “+” indicate the relative level of activities.; ++: The numbers of “+” indicate the relative level of activities.; +++: The numbers of “+” indicate the relative level of activities.; “−” indicates no detected activity at the concentration range tested. The note with it: 293, human embryonal kidney.

Assay [6] concerns I-kappaBa in U-937 cells. The assay can be described thus: I-kappaBa degradation (Western blot). The format is cell-based. The note with it: 0.1-1.0 μg/ml, 12 hours. The protocol:
These experiments were elaborated by determining a degradation profile for I-kappaBa in U-937 cells in response to treatment with TNF-gamma. A time course of I-kappaBa degradation was determined by Western blot analysis, a technique that is well-known by one of ordinary skill in the art and has been described by Singh and Aggarwal (J. Biol. Chem. 270:24995-25000 (1995)).
For orientation: Immunoblotting shows a protein as a band on a membrane.

The subject of assay [7] is c-Jun kinase (JNK) in U-937 cells. The assay can be described thus: JNK kinase activation assay. The note with it: 0.1 to 3.0 μg/ml. The format is cell-based. The procedure: The cellular kinase designated c-Jun kinase (JNK) is an early event in cellular activation. The activation of JNK by TNF-gamma was analyzed as an additional method of determining cellular reaction to treatment with TNF-gamma. The JNK kinase activation assay is well-known by one of skill in the art and has been described by Derijard and colleagues (Cell 76:1025-1029 (1994)). After treatment of U-937 cells with 0.1 to 3.0 μg/ml of TNF-gamma for 12 hours, the cells were harvested and assayed for JNK kinase activity. By 6 and 12 hours, JNK activity had increased 2- and 3.6-fold, respectively.

Assay [8] deals with MC-38 murine colon cancer. Description: In vivo tumorigenicity assay, syngeneic MC-38 colon cancer. More on the design: species or system C57BL6/6 mice. The note with it: local production by transfected MCA 38 cells, 1×10^6 cells/mouse. The procedure: [The full-length TNF-gamma and extracellular domain of DR3 was cloned into pcDNA3 expression vector and transfected to MCA 38 cells, respectively. After selection and cloning, three clones from each constructs were picked for tumorigenicity study. MCA 38 cells (1×10^6 cells/mouse) expressing TNF-gamma or DR3 extracellular domain were injected into C57BL6/6 mice. The tumor size was assessed by measuring perpendicular diameters with a caliper and calculated by multiplying the measurements of diameters in two dimensions. Data are represented as the mean +/−SD of 6 mice in each group.] It is clear that most immune cells and cancer cells can express more than one TNF receptor (even more than one death receptor) and ligand superfamily member. […] Moreover, the expression of these ligands and receptors may differ at the level of individual cell types within tissues and the expression level on the same cell type may also differ.
The full length TNF-gamma and extracellular domain of DR3 was cloned into pcDNA3 expression vector (Invitrogen, Carlsbad, Calif.) and transfected to MCA 38 cells, respectively. […] Mice then were randomized and tumors were measured twice weekly. The tumor size was assessed by measuring perpendicular diameters with a caliper and calculated by multiplying the measurements of diameters in two dimensions. […]

Where [9] appears, read: HL-60, human promyelocytic leukemia.

For the substance “TNF-gamma: new member of the tumor necrosis factor family; the term refers to TNF-gamma-alpha and/or TNF-gamma-beta”, the Adhesion entry is “++” in assay [1] (setting [9]), “−−” in assay [2], “−−” in assay [4] and “−−” in assay [5]. Also, the Differentiation result in assay [1] (setting [9]) is listed as “−”; in assay [2] it was “−−”; in assay [3], “−?”; in assay [4], “−−”; in assay [5], “−−”. In addition, the Proliferation result in assay [1] (setting [9]) is “−”; in assay [2], “−”; in assay [3], “++”; in assay [4], “−”; in assay [5], “++”. The “cell adhesion and cell-cell contact” value in assay [1] (HL-60 cells, observation under the microscope (FIG. 11)) is recorded as “clearly aggregated together”. Moreover, in assay [6], the I-kappaBa degradation entry is “completely degraded”. The results for the “increase in JNK activity” value in assay [7] (by 6 hours) and in assay [7] (by 12 hours) were 2 fold and 3.6 fold, respectively. Further, the tumor growth result in assay [8] is on record as “caused complete tumor suppression”.
